Assay results published in patent US20230295149A1, “MONOBACTAM COMPOUNDS, THEIR PREPARATION AND USE AS ANTIBACTERIAL AGENTS” (NINGXIA ACADEMY OF AGRICULTURE AND FORESTRY SCIENCES, priority 2020, published 2023).

Tests used:
Assay in all cases: MIC determination, broth microdilution
Type in all cases: cell-based
A. baumannii 19606 = conditions: Acinetobacter baumannii, 37° C., 18-24 hours, read-out: Strain8 MIC
Description: (§1) Compounds of this invention were tested for antimicrobial activity by determining minimum inhibitory concentrations (MICs, in μg/mL) using the broth microdilution method according to the guidelines of the Clinical Laboratories and Standards Institute (“Methods for Dilution Antimicrobial Susceptibility Tests for Bacteria that Grow Aerobically”, Approved standard, 7th ed., Clinical and Laboratory Standards Institute (CLSI) Document M7-A8, Wayne, Pa., USA, 2009.). Test compounds were dissolved in DMSO. The compounds were then diluted in microbial growth medium (Mueller Hinton Broth II, cation adjusted) resulting in a final concentration range of 0.063-64 μg/mL in serial two-fold dilution. In all cases the final DMSO concentration was less than 0.5%. Bacteria were added to 96-well microtitre plates containing the two-fold dilutions of the compounds; the final cell density was approximately 5×10^5 colony forming units/mL (CFU/mL). Plates were incubated at 37° C. for 18-24 hours and read visually. The MIC, i.e. the lowest concentration of the test compound that inhibited visible growth of the bacteria, was recorded. The same assay conditions were used when the compounds of this invention were tested in combination with—lactamase inhibitors. While the compounds of this invention were serially diluted as described above, a constant concentration of the inhibitor of 4 mg/L was used. Bacterial strains that were used to evaluate the antimicrobial activity using the MIC determination included but were not limited to E. coli clinical isolate, E. coli 8739, K. pneumoniae clinical isolate, K. pneumoniae 700603, E. cloacae clinical isolate, E. cloacae 700323, A. baumannii clinical isolate, A. baumannii 19606, P. aeruginosa clinical isolate, P. aeruginosa 9027.

[1] = test system: A. baumannii clinical isolate; conditions: Acinetobacter baumannii, 37° C., 18-24 hours, read-out: Strain 7 MIC
Description: as §1

E. cloacae 700323 = conditions: Enterobacter cloacae, 37° C., 18-24 hours, read-out: Strain 6 MIC
Description: as §1

[2] = test system: E. cloacae clinical isolate; conditions: Enterobacter cloacae, 37° C., 18-24 hours, read-out: Strain5 MIC
Description: as §1

E. coli 8739 = conditions: Escherichia coli, 37° C., 18-24 hours, read-out: Strain 2 MIC
Description: as §1

E. coli clinical isolate = conditions: Escherichia coli, 37° C., 18-24 hours, read-out: Strain 1 MIC
Description: as §1

K. pneumoniae 700603 = conditions: Klebsiella pneumoniae, 37° C., 18-24 hours, read-out: Strain 4 MIC
Description: as §1

[3] = test system: K. pneumoniae clinical isolate; conditions: Klebsiella pneumoniae, 37° C., 18-24 hours, read-out: Strain 3 MIC
Description: as §1

P. aeruginosa 9027 = conditions: Pseudomonas aeruginosa, 37° C., 18-24 hours, read-out: Strain 10 MIC
Description: as §1

[4] = test system: P. aeruginosa clinical isolate; conditions: Pseudomonas aeruginosa, 37° C., 18-24 hours, read-out: Strain 9 MIC
Description: as §1

| MIC (A. baumannii 19606) | MIC [1] | MIC (E. cloacae 700323) | MIC [2] | MIC (E. coli 8739) | MIC (E. coli clinical isolate) | MIC (K. pneumoniae 700603) | MIC [3] | MIC (P. aeruginosa 9027) | MIC [4] | SMILES |
| --- | --- | --- | --- | --- | --- | --- | --- | --- | --- | --- |
| 8 µg/mL | 16 µg/mL | 8 µg/mL | 8 µg/mL | 1 µg/mL | 8 µg/mL | 8 µg/mL | 4 µg/mL | 2 µg/mL | 2 µg/mL | CC1(C)[C@H](NC(=O)/C(=N\O[C@@H](COc2ccc(C(=N)N[C@@H]3CCNC3)cc2)C(=O)O)c2nsc(N)n2)C(=O)N1OS(=O)(=O)O [Example 12, (S)-2-((((Z)-1-(5-Amino-1,2,4-thiadiazol-3-yl)-2-(((S)-2,2-dimethyl-4-oxo-1-(sulfooxy)azetidin-3-yl)amino)-2-oxoethylidene)amino)oxy)-3-(4-(N—((R)-pyrrolidin-3-yl)carbamimidoyl)phenoxy)propanoic acid] |
| 4 µg/mL | 8 µg/mL | 8 µg/mL | 8 µg/mL | 0.25 µg/mL | 0.5 µg/mL | 8 µg/mL | 8 µg/mL | 1 µg/mL | 1 µg/mL | CC1(C)[C@H](NC(=O)/C(=N\O[C@@H](COc2ccc(C(=N)NC3CNC3)cc2)C(=O)O)c2nc(N)sc2Cl)C(=O)N1OS(=O)(=O)O [Example 8, (S)-2-((((Z)-1-(2-Amino-5-chlorothiazol-4-yl)-2-(((S)-2,2-dimethyl-4-oxo-1-(sulfooxy)azetidin-3-yl)amino)-2-oxoethylidene)amino)oxy)-3-(4-(N-(azetidin-3-yl)carbamimidoyl)phenoxy)propanoic acid] |
